Values of other authors in US20110086102A1, “DELAYED RELEASE COMPOSITIONS” (Teva Pharmaceutical Industries Ltd., priority 2009, published 2011).
Where two headings read alike, the source gives them in different places.

COc1c(C)c2c(c(O)c1C/C=C(\C)CCC(=O)[O-])C(=O)OC2.[Na+] [Mycophenolate sodium, (E)-6-(4-hydroxy-6-methoxy-7-methyl-3-oxo-1,3-dihydro-isobenzofuran-5-yl)-4-methylhex-4-enoic acid sodium salt]
Solubility (0.1N hydrochloric acid): practically insoluble
Solubility (aqueous media at physiological pH): highly soluble
